Measured values published in US20110237520A1, “Anticancer Compounds” (priority 2008, published 2011).
Like-named read-outs stand apart in the source and are kept apart here. Numbered stars: 1 amine (or outer) side, 2 acyl side, 3 side chain; on linkers, the order of the positions; unused ones are H or OH. Bridge positions count the residues as written; N and C are the ends. Square brackets hold non-standard residues; d marks the D form. Peptide text beside a SMILES is read from it. * marks the point of attachment. ξ: configuration not given here. dNle(3R-OH,4R,5-Me2) = CC(C)[C@@H](C)[C@@H](O[*:3])[C@@H](N[*:1])C(=O)[*:2]; γ4hArg(2R,3R-(OH)2) = N=C(N)NCCC[C@H](N[*:1])[C@@H](O)[C@@H](O)C(=O)[*:2]; Heptanoyl(3R-OH,2R,4R,6-Me3) = CC(C)C[C@@H](C)[C@@H](O)[C@@H](C)C(=O)*; X5 = CO[C@H](c1ccc(O)cc1)C(N[*:1])C(=O)C[C@H](CC(N)=O)C(=O)[*:2]; Gln(3S,4R-Me2) = C[C@H]([C@H](N)C(=O)O)[C@@H](C)C(N)=O; X1 = NC(=O)CC[C@H](N[*:1])[C@@H](O)[C@@H](O)C(=O)[*:2]; X7 = O=C(O)CC[C@H](N[*:1])[C@@H](O)[C@@H](O)C(=O)[*:2]; ξThr(3R)(O-yl) = C[C@@H](O[*:3])C(N[*:1])C(=O)[*:2]; X6 = CC[C@@H](C)C[C@@H](C)[C@@H](O)[C@@H](C)C(=O)*; X4 = C[C@H](C(N[*:1])C(=O)[*:2])[C@@H](C)C(N)=O; Asn(3S-OEt) = CCO[C@H](C(N)=O)[C@H](N)C(=O)O; dAsp(3S-OH) = N[C@@H](C(=O)O)[C@H](O)C(=O)O; ξGln(3,4-Me2) = CC(C(N)=O)C(C)C(N)C(=O)O; X3 = CC(O)C(N[*:1])C(O)C(O)C(=O)[*:2]; ξAsn(3ξ-OMe) = COC(C(N)=O)C(N)C(=O)O; d(aThr) = C[C@@H](O)[C@@H](N)C(=O)O; X2 = CC(C)CC(C)CC(C)C(O)C(C)C(=O)*; NMeQ = CN[CH](CCC(N)=O)C(=O)O; ξNle(4ξ-Me) = CCC(C)CC(N)C(=O)O; ξThr(3R) = C[C@@H](O)C(N)C(=O)O; dOrn = NCCC[C@@H](N)C(=O)O; Pip = O=C(O)[CH]1CCCCN1; Orn = NCCC[CH](N)C(=O)O; ξL = CC(C)CC(N)C(=O)O

Assays:
[1] = system: HT29; experiment: SRB colorimetric cytotoxicity assay, HT29; format: cell-based, human; settings: for GI50: 50% cell growth inhibition; for CC50: 50% net cell killing, read-out: LC50 (the source's name); for TGI: total cell growth inhibition
Excerpt: (§1) The aim of this assay is to evaluate the in vitro cytostatic (ability to delay or arrest tumor cell growth) or cytotoxic (ability to kill tumor cells) activity of the samples being tested.
(§2) A colorimetric assay, using sulforhodamine B (SRB) reaction has been adapted to provide a quantitative measurement of cell growth and viability (following the technique described by Skehan et al. J. Natl. Cancer Inst. 1990, 82, 1107-1112).
(§3) This form of assay employs SBS-standard 96-well cell culture microplates (Faircloth et al. Methods in Cell Science, 1988, 11(4), 201-205; Mosmann et al, Journal of Immunological Methods, 1983, 65(1-2), 55-63). All the cell lines used in this study were obtained from the American Type Culture Collection (ATCC) and derive from different types of human cancer.
(§4) Cells were maintained in Dulbecco's Modified Eagle Medium (DMEM) supplemented with 10% Fetal Bovine Serum (FBS), 2 mM L-glutamine, 100 U/mL penicillin and 100 U/mL streptomycin at 37° C., 5% CO2 and 98% humidity. For the experiments, cells were harvested from subconfluent cultures using trypsinization and resuspended in fresh medium before counting and plating.
(§5) Cells were seeded in 96 well microtiter plates, at 5×10^3 cells per well in aliquots of 150 μL, and allowed to attach to the plate surface for 18 hours (overnight) in drug free medium. After that, one control (untreated) plate of each cell line was fixed (as described below) and used for time zero reference value. Culture plates were then treated with test compounds (50 μL aliquots of 4× stock solutions in complete culture medium plus 4% DMSO) using ten serial dilutions (concentrations ranging from 10 to 0.00262 μg/mL) and triplicate cultures (1% final concentration of DMSO). After 72 hours treatment, the antitumor effect was measured by using the SRB methodology: Briefly, cells were washed twice with PBS, fixed for 15 min in 1% glutaraldehyde solution at room temperature, rinsed twice in PBS, and stained in 0.4% SRB solution for 30 min at room temperature. Cells were then rinsed several times with 1% acetic acid solution and air-dried at room temperature. SRB was then extracted in 10 mM trizma base solution and the absorbance measured in an automated spectrophotometric plate reader at 490 nm. Effects on cell growth and survival were estimated by applying the NCI algorithm (Boyd M R and Paull K D. Drug Dev. Res. 1995, 34, 91-104).
(§6) Using the mean±SD of triplicate cultures, a dose-response curve was automatically generated using nonlinear regression analysis. Three reference parameters were calculated (NCI algorithm) by automatic interpolation: GI50=compound concentration that produces 50% cell growth inhibition, as compared to control cultures; TGI=total cell growth inhibition (cytostatic effect), as compared to control cultures, and LC50=compound concentration that produces 50% net cell killing (cytotoxic effect).

[2] = system: MDA-MB-231; experiment: SRB colorimetric cytotoxicity assay, MDA-MB-231; format: cell-based, human; settings: MDA-MB-231, 72 hours treatment; for GI50: 50% cell growth inhibition; for TGI: total cell growth inhibition
Excerpt: as §1, §2, §3, §4, §5, §6

[3] = system: A549; experiment: SRB colorimetric cytotoxicity assay, A549; format: cell-based, human; settings: A549, 72 hours treatment; for GI50: 50% cell growth inhibition; for CC50: 50% net cell killing, read-out: LC50 (the source's name); for TGI: total cell growth inhibition
Excerpt: as §1, §2, §3, §4, §5, §6

[4] = system: panel of human cancer cell lines; settings: mean over a panel of human cancer cell lines; cited from earlier work
[5] = system: HIV-1RF; settings: in vitro; cited from earlier work
[6] = system: HIV-1; settings: cell-based XTT assay; read-out: IC50, cytoprotective activity against HIV-1 infection; cited from earlier work
[7] = system: HIV-1RF; settings: human T-cell line CEM-SS infected with HIV-1RF, 6 day incubation; read-out: EC50, inhibition of the cytopathic effect of HIV-1 infection; cited from earlier work
[8] = Homo sapiens, HT-29, HT29, 72 hours treatment

## CCO[C@H](C(N)=O)[C@@H]1NC(=O)[C@H](CCC(N)=O)N(C)C(=O)[C@H](CC(C)C)NC(=O)[C@@H](CCCCN)NC(=O)[C@@H]([C@@H](C)O)NC(=O)[C@H](NC(=O)[C@@H](NC(=O)[C@H](O)[C@H](O)[C@H](CCC(N)=O)NC(=O)[C@@H](CC(=O)O)NC(=O)[C@H](C)[C@H](O)[C@H](C)CC(C)C)[C@@H](C)[C@@H](C)C(N)=O)[C@@H]([C@H](C)C(C)C)OC(=O)[C@@H]2CCCCN2C(=O)[C@@H](CC(=O)O)NC1=O [Pipecolidepsin A] ({Heptanoyl(3R-OH,2R,4R,6-Me3)}-[dD][X1][Gln(3S,4R-Me2)][dNle(3R-OH,4R,5-Me2)][d(aThr)][dK]L[NMeQ][Asn(3S-OEt)][dD][Pip]; ester 4-C)
[1]; HT29, 72 hours treatment
  GI50: 1150 nM
  CC50: 1570 nM
  TGI: 1.33E−06 Molar
[2]
  GI50: 725 nM
  LC50 (50% net cell killing): 1750 nM
  TGI: 1.15E−06 Molar
[3]
  GI50: 604 nM
  CC50: 1390 nM
  TGI: 9.06E−07 Molar

## CCC(C)CC1NC(=O)C(CCCN)NC(=O)C(C(C)O)NC(=O)C(NC(=O)C(NC(=O)C(O)C(O)C(NC(=O)CNC(=O)C(C)C(O)C(C)CC(C)CC(C)C)C(C)O)C(C)C(C)C(N)=O)C(C)OC(=O)C2CCCCN2C(=O)C(CC(N)=O)NC(=O)C(C(OC)C(N)=O)NC(=O)C(CCC(N)=O)N(C)C1=O (centres unmarked) [Pipecolidepsin C] (X2-G[X3][ξGln(3,4-Me2)]TT[Orn][ξNle(4ξ-Me)][NMeQ][ξAsn(3ξ-OMe)]N[Pip]; ester 4-C; configuration not given here)
[1]; HT29, 72 hours treatment
  TGI: 8.43E−07 Molar
[1]; [8]
  GI50: 648 nM
  CC50: 1040 nM
[2]; Homo sapiens
  GI50: 480 nM
  LC50 (50% net cell killing): 907 nM
[2]
  TGI: 6.48E−07 Molar
[3]
  TGI: 5.25E−07 Molar
[3]; Homo sapiens
  GI50: 428 nM
  CC50: 648 nM

## papuamide A
[4]
  mean IC50, cytotoxicity: 0.075 µg/mL
[5]
  EC50, inhibition of infection of human T-lymphoblastoid cells by HIV-1RF: approximately 4 ng/mL

## papuamide B
[5]
  EC50, inhibition of infection of human T-lymphoblastoid cells by HIV-1RF: approximately 4 ng/mL

## CC[C@@H](C)C[C@@H](C)[C@@H](O)[C@@H](C)C(=O)N[C@H](CCCN)C(=O)N[C@@H](CCC(=O)O)[C@@H](O)[C@@H](O)C(=O)N[C@H](C(=O)N[C@H]1C(=O)N[C@H](CO)C(=O)N[C@H](CCCN)C(=O)N[C@@H](CC(C)C)C(=O)N(C)[C@@H](CCC(N)=O)C(=O)N[C@@H]([C@@H](C)OC)C(=O)N[C@H](CC(=O)O)C(=O)N2CCCC[C@H]2C(=O)O[C@@H]1[C@H](C)C(C)C)[C@@H](C)[C@@H](C)C(N)=O [homophymine A] (X6-[dOrn][X7][Gln(3S,4R-Me2)][dNle(3R-OH,4R,5-Me2)][dS][dOrn]L[NMeQ]T(Me)[dD][Pip]; ester 4-C)
[6]
  IC50: 75 nM

## CO[C@H](c1ccc(O)cc1)C1NC(=O)[C@H](CCC(N)=O)N(C)C(=O)C(CC(C)C)NC(=O)[C@@H](CCCNC(=N)N)NC(=O)C([C@@H](C)O)NC(=O)C(NC(=O)C(NC(=O)[C@H](O)[C@H](O)[C@H](CCCNC(=N)N)NC(=O)[C@H](CC(N)=O)NC(=O)[C@H](C)[C@H](O)[C@H](C)CC(C)C)[C@@H](C)[C@@H](C)C(N)=O)[C@@H](C)OC(=O)[C@@H]2CCCCN2C(=O)[C@@H](CC(N)=O)CC1=O (stereo partly drawn) [neamphamide A] ({Heptanoyl(3R-OH,2R,4R,6-Me3)}-N[γ4hArg(2R,3R-(OH)2)][X4][ξThr(3R)(O-yl)][ξThr(3R)][dR][ξL][NMeQ][X5][Pip]; ester 4-C)
[7]
  EC50: 28 nM

## CCO[C@H](C(N)=O)[C@@H]1NC(=O)[C@H](CCC(N)=O)N(C)C(=O)[C@H](CC(C)C)NC(=O)[C@@H](CCCCN)NC(=O)[C@@H]([C@@H](C)O)NC(=O)[C@H](NC(=O)[C@@H](NC(=O)[C@H](O)[C@H](O)[C@H](CCC(N)=O)NC(=O)[C@H](NC(=O)[C@H](C)[C@H](O)[C@H](C)CC(C)C)[C@H](O)C(=O)O)[C@@H](C)[C@@H](C)C(N)=O)[C@@H]([C@H](C)C(C)C)OC(=O)[C@@H]2CCCCN2C(=O)[C@@H](CC(=O)O)NC1=O [Pipecolidepsin B] ({Heptanoyl(3R-OH,2R,4R,6-Me3)}-[dAsp(3S-OH)][X1][Gln(3S,4R-Me2)][dNle(3R-OH,4R,5-Me2)][d(aThr)][dK]L[NMeQ][Asn(3S-OEt)][dD][Pip]; ester 4-C)
[1]; HT29, 72 hours treatment
  GI50: 14.4 nM
  CC50: 65.8 nM
  TGI: 2.69E−08 Molar
[2]
  GI50: 23.3 nM
  LC50 (50% net cell killing): 209 nM
  TGI: 6.58E−08 Molar
[3]
  GI50: 35.3 nM
  CC50: 353 nM
  TGI: 1.08E−07 Molar
